Data from paper PMC11995724, “Antibiotic target discovery by integrated phenotypic and activity-based profiling of electrophilic fragments” (Cell chemical biology, 2025).
Where a name gives a salt, the structure may show the parent alone.

Experiment: in vitro
Conditions: human, hek293t cells

Row | SMILES | viability at 48 h, 25 µM
1 | O=C(CCl)Nc1ccc(OC(F)F)cc1 [4-J10, 2-chloro-N-[4-(difluoromethoxy)phenyl]acetamide] | 1.07%
2 | COc1ccc(C(NC(=O)CCl)c2ccccc2)cc1 (stereo not drawn) [4-J11, 2-chloro-N-[(4-methoxyphenyl)(phenyl)methyl]acetamide] | 0.827%
3 | CCc1cc(SC#N)cc(CC)c1NC(=O)CCl [4-J12, 2-chloro-N-[4-(cyanosulfanyl)-2,6-diethylphenyl]acetamide] | 84.8%
4 | CC(Cl)C(=O)NC(=O)NC1CCS(=O)(=O)C1 (stereo not drawn) [4-J13, 3-(2-chloropropanoyl)-1-(1,1-dioxo-1lambda6-thiolan-3-yl)urea] | 94.7%
5 | O=C(CCl)NC(c1ccccc1)c1cccs1 (stereo not drawn) [4-J14, 2-chloro-N-[phenyl(thiophen-2-yl)methyl]acetamide] | 1.95%
6 | Cc1ccc(NC(=O)C(C)Cl)cc1 (stereo not drawn) [4-J15, 2-chloro-N-(4-methylphenyl)propanamide] | 92.1%
7 | CCOc1ccc(NC(=O)CCl)cc1S(=O)(=O)N1CCCC1 [4-J16, 2-chloro-N-[4-ethoxy-3-(pyrrolidine-1-sulfonyl)phenyl]acetamide] | 1.41%
8 | CC(Cl)C(=O)Nc1ccc([N+](=O)[O-])cc1Cl (stereo not drawn) [4-J17, 2-chloro-N-(2-chloro-4-nitrophenyl)propanamide] | 85.5%
9 | O=C(CCl)N(Cc1ccco1)C12CC3CC(CC(C3)C1)C2 [4-J18, N-(adamantan-1-yl)-2-chloro-N-[(furan-2-yl)methyl]acetamide] | 1.5%
10 | COC(=O)c1c(NC(=O)CCl)sc2c1CCC(C(C)(C)C)C2 (stereo not drawn) [4-J19, methyl 6-tert-butyl-2-(2-chloroacetamido)-4,5,6,7-tetrahydro-1-benzothiophene-3-carboxylate] | 69.6%
11 | O=C(CN1CCN(C(=O)CCl)CC1)Nc1ccc(F)cc1 [4-J20, 2-[4-(2-chloroacetyl)piperazin-1-yl]-N-(4-fluorophenyl)acetamide hydrochloride] | 1.34%
12 | O=C(CCl)NCCc1nc2c(s1)CCCCC2 [4-J21, 2-chloro-N-(2-{4H,5H,6H,7H,8H-cyclohepta[d][1,3]thiazol-2-yl}ethyl)acetamide] | 15%
13 | CN(C)S(=O)(=O)c1ccccc1CNC(=O)CCl [4-J22, 2-chloro-N-{[2-(dimethylsulfamoyl)phenyl]methyl}acetamide] | 1.7%
14 | Cc1ccc(Oc2ccc(NC(=O)CCl)cc2)cc1 [4-K03, 2-chloro-N-[4-(4-methylphenoxy)phenyl]acetamide] | 0.0354%
15 | Cc1cc(C)cc(-c2cc(NC(=O)CCl)n(-c3ccccc3)n2)c1 [4-K04, 2-chloro-N-[3-(3,5-dimethylphenyl)-1-phenyl-1H-pyrazol-5-yl]acetamide] | -0.323%
16 | CN(CC(=O)Nc1ccccc1C(F)(F)F)C(=O)CCl [4-K05, 2-chloro-N-methyl-N-({[2-(trifluoromethyl)phenyl]carbamoyl}methyl)acetamide] | 0.506%
17 | Cc1ccc2sc(N(Cc3ccccc3)C(=O)CCl)nc2c1C [4-K06, N-benzyl-2-chloro-N-(4,5-dimethyl-1,3-benzothiazol-2-yl)acetamide] | -0.0749%
18 | CCN(CC)S(=O)(=O)c1ccc(NC(=O)CCl)cc1 [4-K07, 2-chloro-N-[4-(diethylsulfamoyl)phenyl]acetamide] | 0.364%
19 | CC(C)OC(=O)c1ccc(NC(=O)C(C)Cl)cc1 (stereo not drawn) [4-K08, propan-2-yl 4-(2-chloropropanamido)benzoate] | 76.3%

Row | SMILES | viability at 48 h, 25 µM
20 | O=C(CCl)Nc1cc(Cl)cc(Cl)c1 [4-K09, 2-chloro-N-(3,5-dichlorophenyl)acetamide] | 1.41%
21 | CC(Cl)C(=O)Nc1ccc2c(c1)OCCCO2 (stereo not drawn) [4-K10, 2-chloro-N-(3,4-dihydro-2H-1,5-benzodioxepin-7-yl)propanamide] | 85.4%
22 | CC(C)C(NC(=O)CCl)c1ccccc1 (stereo not drawn) [4-K11, 2-chloro-N-(2-methyl-1-phenylpropyl)acetamide] | 3.98%
23 | COc1cc([N+](=O)[O-])ccc1NC(=O)C(C)Cl (stereo not drawn) [4-K12, 2-chloro-N-(2-methoxy-4-nitrophenyl)propanamide] | 91.3%
24 | CC(C)N(C)S(=O)(=O)c1ccc(NC(=O)CCl)cc1 [4-K13, 2-chloro-N-{4-[methyl(propan-2-yl)sulfamoyl]phenyl}acetamide] | 1.64%
25 | CC(Cl)C(=O)NCCc1ccccc1 (stereo not drawn) [4-K14, 2-chloro-N-(2-phenylethyl)propanamide] | 102%
26 | Cc1cc(N(CCC#N)C(=O)CCl)ccc1Cl [4-K15, 2-chloro-N-(4-chloro-3-methylphenyl)-N-(2-cyanoethyl)acetamide] | 0.75%
27 | CC1CC(C)CN(S(=O)(=O)c2ccc(NC(=O)CCl)cc2)C1 (stereo not drawn) [4-K16, 2-chloro-N-{4-[(3,5-dimethylpiperidin-1-yl)sulfonyl]phenyl}acetamide] | 0.265%
28 | CCC(NC(=O)CCl)c1ccc(C)cc1 (stereo not drawn) [4-K17, 2-chloro-N-[1-(4-methylphenyl)propyl]acetamide] | 2.62%
29 | O=C(CCl)NC(c1ccc(F)cc1)c1cccs1 (stereo not drawn) [4-K18, 2-chloro-N-[(4-fluorophenyl)(thiophen-2-yl)methyl]acetamide] | 0.21%
30 | COc1ccc(C(NC(=O)CCl)C2CC2)cc1 (stereo not drawn) [4-K19, 2-chloro-N-[cyclopropyl(4-methoxyphenyl)methyl]acetamide] | 2.83%
31 | O=C(CCl)N1N=C(c2cccs2)CC1c1ccccc1O (stereo not drawn) [4-K20, 2-chloro-1-[5-(2-hydroxyphenyl)-3-(thiophen-2-yl)-4,5-dihydro-1H-pyrazol-1-yl]ethan-1-one] | -0.22%
32 | Cc1ccc(SCCNC(=O)CCl)cc1 [4-K21, 2-chloro-N-{2-[(4-methylphenyl)sulfanyl]ethyl}acetamide] | 1.65%
33 | O=C(CCl)N1N=C(c2ccc3ccccc3c2)CC1c1ccccc1 (stereo not drawn) [4-K22, 2-chloro-1-[3-(naphthalen-2-yl)-5-phenyl-4,5-dihydro-1H-pyrazol-1-yl]ethan-1-one] | -0.201%
34 | CSc1ccccc1NC(=O)CN(C)C(=O)CCl [4-L03, 2-chloro-N-methyl-N-({[2-(methylsulfanyl)phenyl]carbamoyl}methyl)acetamide] | 0.451%
35 | O=C(CCl)Nc1nc(-c2ccccc2)cs1 [4-L04, 2-chloro-N-(4-phenyl-1,3-thiazol-2-yl)acetamide] | -0.0639%
36 | COc1ccc(NC(=O)c2ccccc2NC(=O)CCl)cc1 [4-L05, 2-(2-chloroacetamido)-N-(4-methoxyphenyl)benzamide] | 0.046%
37 | Cc1ccc(S(=O)(=O)N2CCCCC2)cc1NC(=O)CCl [4-L06, 2-chloro-N-[2-methyl-5-(piperidine-1-sulfonyl)phenyl]acetamide] | 0.53%
38 | Cc1ccc(NC(=O)CCl)cc1S(=O)(=O)N1CCOCC1 [4-L07, 2-chloro-N-[4-methyl-3-(morpholine-4-sulfonyl)phenyl]acetamide] | 0.278%

Row | SMILES | viability at 48 h, 25 µM
39 | O=C(CCl)Nc1c(F)c(F)c(F)c(F)c1F [4-L08, 2-chloro-N-(2,3,4,5,6-pentafluorophenyl)acetamide] | 1.92%
40 | CC(Cl)C(=O)Nc1ccc(SC(F)F)cc1 (stereo not drawn) [4-L09, 2-chloro-N-{4-[(difluoromethyl)sulfanyl]phenyl}propanamide] | 71.9%
41 | CCOc1ccc2nc(NC(=O)CCl)sc2c1 [4-L10, 2-chloro-N-(6-ethoxy-1,3-benzothiazol-2-yl)acetamide] | 0.621%
42 | O=C(CCl)NC(Cc1ccccc1)c1ccccc1 (stereo not drawn) [4-L11, 2-chloro-N-(1,2-diphenylethyl)acetamide] | 0.317%
43 | O=C(CCl)N(Cc1cccs1)C1CCS(=O)(=O)C1 (stereo not drawn) [4-L12, 2-chloro-N-(1,1-dioxo-1lambda6-thiolan-3-yl)-N-[(thiophen-2-yl)methyl]acetamide] | 1.65%
44 | CC(Cl)C(=O)Nc1cccc(Cl)c1Cl (stereo not drawn) [4-L13, 2-chloro-N-(2,3-dichlorophenyl)propanamide] | 81.1%
45 | O=C(CCl)N(Cc1ccco1)c1ccccc1 [4-L14, 2-chloro-N-[(furan-2-yl)methyl]-N-phenylacetamide] | 1.2%
46 | CCc1ccc(NC(=O)C(C)Cl)cc1 (stereo not drawn) [4-L15, 2-chloro-N-(4-ethylphenyl)propanamide] | 76.6%
47 | O=C(CCl)NCC(=O)Nc1ccc(F)c(F)c1 [4-L16, 2-chloro-N-{[(3,4-difluorophenyl)carbamoyl]methyl}acetamide] | 1.48%
48 | CC(Cl)C(=O)Nc1ccc(Cl)cc1Cl (stereo not drawn) [4-L17, 2-chloro-N-(2,4-dichlorophenyl)propanamide] | 81.6%
49 | O=C(CCl)N(c1ccccc1)C1CCCCC1 [4-L18, 2-chloro-N-cyclohexyl-N-phenylacetamide] | 0.523%
50 | Cc1cc(C(C)(C)C)cc(C)c1NC(=O)CCl [4-L19, N-(4-tert-butyl-2,6-dimethylphenyl)-2-chloroacetamide] | 1.04%
51 | O=C(CCl)N1CCc2sccc2C1c1cccs1 (stereo not drawn) [4-L20, 2-chloro-1-[4-(thiophen-2-yl)-4H,5H,6H,7H-thieno[3,2-c]pyridin-5-yl]ethan-1-one] | -0.242%
52 | O=C(CCl)NCc1ccccc1OC(F)(F)F [4-L21, 2-chloro-N-{[2-(trifluoromethoxy)phenyl]methyl}acetamide] | 0.623%
53 | O=C(CCl)Nc1nc(-c2cc(F)ccc2F)cs1 [4-L22, 2-chloro-N-[4-(2,5-difluorophenyl)-1,3-thiazol-2-yl]acetamide] | 0.065%
54 | CCCc1cc(NC(=O)CCl)n(-c2ccccc2)n1 [4-M03, 2-chloro-N-(1-phenyl-3-propyl-1H-pyrazol-5-yl)acetamide] | 0.483%
55 | CCc1cc(SC#N)cc(C)c1NC(=O)CCl [4-M04, 2-chloro-N-[4-(cyanosulfanyl)-2-ethyl-6-methylphenyl]acetamide] | 17.6%
56 | O=C(CCl)Nc1ccc(F)c(F)c1F [4-M05, 2-chloro-N-(2,3,4-trifluorophenyl)acetamide] | 0.759%
57 | CCN(CC)S(=O)(=O)c1cccc(NC(=O)CCl)c1 [4-M07, 2-chloro-N-[3-(diethylsulfamoyl)phenyl]acetamide] | 1.11%
